In patent US20090012079A1, “Triazolopyridine Compounds” (priority 2006, published 2009):

System: TNFα release from human peripheral blood mononuclear cells
Assay: TNFα screen: inhibition of LPS-stimulated TNFα release from human peripheral blood mononuclear cells (ELISA)
Type: cell-based
Conditions: human PBMC, LPS stimulation, 18 hours incubation, TNFα in supernatant by ELISA; read-out: TNF IC50
Protocol: Venous blood is collected from healthy volunteers and the mononuclear cells purified by centrifugation through Histopaque (Ficoll) cushions. TNFα production from these cells is stimulated by addition of lipopolysaccharide. After 18 hours incubation in the presence of LPS, the cell supernatant is removed and the concentration of TNFα in the supernatant determined by ELISA. Addition of the compounds of the invention reduces the amount of TNFα produced. An IC50 is determined which is equal to the concentration of compound that gives 50% inhibition of TNFα production as compared to the LPS stimulated control wells.

| SMILES | IC50 [nM] |
| --- | --- |
| CN(C)CCOc1cccc(-n2nc(C(C)(C)C)cc2NC(=O)NCc2ccccc2Sc2ccc3nnc(-c4cc(Cl)ccc4O)n3c2)c1 [Example 1, 1-{5-tert-Butyl-2-[3-(2-dimethylaminoethoxy)phenyl]-2H-pyrazol-3-yl}-3-{2-[3-(5-chloro-2-hydroxyphenyl)-[1,2,4]triazolo[4,3-a]pyridin-6-ylsulfanyl]benzyl}urea] | 5.6 |
| CSCC(C)(C)c1cc(NC(=O)NCc2ccccc2Sc2ccc3nnc(-c4cc(O)ccc4Cl)n3c2)n(-c2cccc(CN(C)C)c2)n1 [Example 2, 1-{2-[3-(2-Chloro-5-hydroxy-phenyl)-[1,2,4]triazolo[4,3-a]pyridin-6-ylsulfanyl]benzyl}-3-[2-(3-dimethylaminomethyl-phenyl)-5-(1,1-dimethyl-2-methylsulfanylethyl)-2H-pyrazol-3-yl]urea] | 2.9 |
| CN(C)Cc1cccc(-n2nc(C(C)(C)C)cc2NC(=O)NCc2ccccc2Sc2ccc3nnc(-c4cc(Cl)ccc4O)n3c2)c1 [Example 3, 1-[5-tert-Butyl-2-(3-dimethylaminomethylphenyl)-2H-pyrazol-3-yl]-3-(2-[3-(5-chloro-2-hydroxyphenyl)-[1,2,4]triazolo[4,3-a]pyridin-6-ylsulfanyl]benzyl)urea] | 4 |
| CN(C)Cc1cccc(-n2nc(C(C)(C)C)cc2NC(=O)NCc2ccccc2Sc2ccc3nnc(-c4cc(O)ccc4Cl)n3c2)c1 [Example 4, 1-[5-tert-Butyl-2-(3-dimethylaminomethylphenyl)-2H-pyrazol-3-yl]-3-{2-[3-(2-chloro-5-hydroxy-phenyl)-[1,2,4]triazolo[4,3-a]pyridin-6-ylsulfanyl]benzyl}urea] | 8.2 |
| CC(C)(C)c1cc(NC(=O)NCc2ccccc2Sc2ccc3nnc(-c4cc(Cl)ccc4O)n3c2)n(-c2cccc(CN3CCOCC3)c2)n1 [Example 5, 1-[5-tert-Butyl-2-(3-morpholin-4-ylmethylphenyl)-2H-pyrazol-3-yl]-3-{2-[3-(5-chloro-2-hydroxyphenyl)-[1,2,4]triazolo[4,3-a]pyridin-6-ylsulfanyl]benzyl}urea] | 2.5 |
| CC(C)(C)c1cc(NC(=O)NCc2ccccc2Sc2ccc3nnc(-c4cc(O)ccc4Cl)n3c2)n(-c2cccc(CN3CCOCC3)c2)n1 [Example 6, 1-[5-tert-Butyl-2-(3-morpholin-4-ylmethylphenyl)-2H-pyrazol-3-yl]-3-{2-[3-(2-chloro-5-hydroxyphenyl)-[1,2,4]triazolo[4,3-a]pyridin-6-ylsulfanyl]benzyl}urea] | 1.8 |
| CC(C)(C)c1cc(NC(=O)NCc2ccccc2Sc2ccc3nnc(-c4ccc(CN5CCOCC5)cc4)n3c2)n(-c2ccc(Cl)c(O)c2)n1 [Example 7, 1-[5-tert-Butyl-2-(4-chloro-3-hydroxyphenyl)-2H-pyrazol-3-yl]-3-{2-[3-(4-morpholin-4-ylmethylphenyl)-[1,2,4]triazolo[4,3-a]pyridin-6-ylsulfanyl]benzyl}urea] | 3 |
| CC(C)(C)c1cc(NC(=O)NCc2ccccc2Sc2ccc3nnc(-c4ccc(CN5CCOCC5)cc4)n3c2)n(-c2ccc(O)c(Cl)c2)n1 [Example 8, 1-[5-tert-Butyl-2-(3-chloro-4-hydroxyphenyl)-2H-pyrazol-3-yl]-3-{2-[3-(4-morpholin-4-ylmethylphenyl)-[1,2,4]triazolo[4,3-a]pyridin-6-ylsulfanyl]benzyl}urea] | 5.5 |
| CC(C)(C)c1cc(NC(=O)NCc2ccccc2Sc2ccc3nnc(-c4cccc(OCCN5CCOCC5)c4)n3c2)n(-c2ccc(O)c(Cl)c2)n1 [Example 9, 1-[5-tert-Butyl-2-(3-chloro-4-hydroxyphenyl)-2H-pyrazol-3-yl]-3-(2-{3-[3-(2-morpholin-4-ylethoxy)phenyl]-[1,2,4]triazolo[4,3-a]pyridin-6-ylsulfanyl}benzyl)urea] | 5.6 |
| CC(C)(C)c1cc(NC(=O)NCc2ccccc2Sc2ccc3nnc(-c4cccc(OCCN5CCOCC5)c4)n3c2)n(-c2ccc(Cl)c(O)c2)n1 [Example 10, 1-[5-tert-Butyl-2-(4-chloro-3-hydroxyphenyl)-2H-pyrazol-3-yl]-3-(2-{3-[3-(2-morpholin-4-yl-ethoxy)phenyl]-[1,2,4]triazolo[4,3-a]pyridin-6-ylsulfanyl}benzyl)urea] | 4.3 |
| CSCC(C)(C)c1cc(NC(=O)NCc2ccccc2Sc2ccc3nnc(-c4cc(Cl)ccc4O)n3c2)n(-c2cccc(CN(C)C)c2)n1 [Example 11, 1-{2-[3-(5-Chloro-2-hydroxy-phenyl)-[1,2,4]triazolo[4,3-a]pyridin-6-ylsulfanyl]benzyl}-3-[2-(3-dimethylaminomethyl-phenyl)-5-(1,1-dimethyl-2-methylsulfanylethyl)-2H-pyrazol-3-yl]urea] | 4.9 |
